BindingDB's records for patent US10934285 (Novartis, 2021)

Target: T1, Tyrosine-protein phosphatase non-receptor type 11 (Homo sapiens, UniProt Q06124)
T1 sequence (Q06124 whole entry): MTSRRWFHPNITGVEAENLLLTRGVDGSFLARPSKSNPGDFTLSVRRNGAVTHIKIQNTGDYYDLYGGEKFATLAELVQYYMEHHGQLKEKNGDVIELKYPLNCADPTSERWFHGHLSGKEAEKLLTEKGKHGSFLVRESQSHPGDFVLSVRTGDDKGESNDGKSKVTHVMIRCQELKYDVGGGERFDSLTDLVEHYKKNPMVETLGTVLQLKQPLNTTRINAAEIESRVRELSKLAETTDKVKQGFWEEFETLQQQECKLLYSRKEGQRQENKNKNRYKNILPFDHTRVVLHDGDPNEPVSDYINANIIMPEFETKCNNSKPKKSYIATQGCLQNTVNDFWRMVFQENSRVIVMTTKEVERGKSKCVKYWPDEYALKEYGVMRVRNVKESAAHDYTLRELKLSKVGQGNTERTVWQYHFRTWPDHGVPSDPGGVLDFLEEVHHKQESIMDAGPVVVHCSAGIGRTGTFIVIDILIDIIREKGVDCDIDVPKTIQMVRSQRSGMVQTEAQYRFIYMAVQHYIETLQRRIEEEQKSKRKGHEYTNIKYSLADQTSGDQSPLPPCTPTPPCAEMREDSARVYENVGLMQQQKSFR
Experiment: Inhibition Assay
Description: After 30-60 minutes incubation at 25° C., the surrogate substrate DiFMUP (Invitrogen, cat #D6567) was added to the reaction and incubated at 25° C. for 30 minutes. The reaction was then quenched by the addition of 5 μl of a 160 μM solution of bpV(Phen) (Enzo Life Sciences cat #ALX-270-204). The fluorescence signal was monitored using a microplate reader (Envision, Perki-Elmer) using excitation and emission wavelengths of 340 nm and 450 nm, respectively. The inhibitor dose response curves were analyzed using normalized IC50 regression curve fitting with control based normalization.

Structure (SMILES)	IC50 [µM]
CN(c1cnc(Sc2cccc(NC(=O)c3c(O)nc4n(c3=O)CCCC4)c2Cl)c(N)n1)C1CC(C)(C)NC(C)(C)C1 [US10934285, Example 21]	5.38
CC1(CN)CCN(c2nnc(Sc3cccc(NC(=O)c4c(O)n5c(ccc6ccccc65)nc4=O)c3Cl)c(N)n2)CC1 [US10934285, Example 38]	0.015
